Laboratory results from US10456441B2, “Augmenting the immune response by promoting cell death of immune cells” (The University of Vermont and State Agricultural College, priority 2014, dated 2019).
Where a SMILES comes first, the peptide text is derived from it. The star is where a group is joined. Cbz = O=C(OCc1ccccc1)*; CH2F = FC*

System: BMDC
Test: Cytokine production by Borrelia-stimulated BMDC (Bio-Plex)
Assay type: cell-based, mice
Settings: zVAD, 20 h
Procedure: The preparation of bone marrow-derived dendritic cells (BMDC) was done according to the method of Lutz et al. (26) using GM-CSF ([…] PeproTech, Rocky Hill N.J.) or GM-CSF plus IL-4 (10 μg/ml, PeproTech). Cells were used on day 7.
Day 7 γδ T cells and BMDC were cultured either individually or together at a 1:1 ratio (10^6 cells/ml each). To some cultures the following reagents were added: a sonicate of Borrelia burgdorferi (10 μg/ml), zVAD-fmk (MP Biomedical, Santa Ana Calif.) at the doses indicated, necrostatin (50 μM, R&D Systems, Minneapolis, Minn.), anti-TNF-α (10 μg/ml, Calbiochem, Darnstadt, Germany),, anti-IL-1 Receptor antagonist, Anakinra (200 ng/ml, Amgen, Thousand Oaks, Calif.), anti-IL-12 (10 μg/ml, BioLegend San Diego, Calif.), anti-IL-18 (10 μg/ml, MBL, Woburn Mass.), or rat IgG (10 μg/ml Jackson Immunoresearch, West Grove Pa.). Transwell assays were performed using 1×10^6 γδ T cells in 1 ml of complete medium+IL-2 placed in the lower chamber, with 5×10^5 DC in 100 μl placed in the upper chamber. […]
Cytokine levels of IFN-γ, IL-1β, IL-12p40, IL-12p70, IL-17, and TNF-α were detected using the Bio-Plex, MilliPlex, or Luminex immunoassay (Bio-Rad; Millipore-EMD; R&D Systems, Minneapolis, Minn.) according to the manufacturer's protocol. Briefly, samples were run undiluted or diluted 1:10 in RPMI complete media. 50 μl of the magnetic bead working solution was added to each well, then 50 μl of appropriate samples or standards were then added to wells and incubated at room temperature for 30-120 min at 800 rpm on an IKA MS 3 digital shaker. After three washes with 100 μl Bio-Plex wash buffer, incubation with 25 μl of detection antibody solution was done at room temperature for 30-60 min on the shaker. Following another set of three washes, 50 μl of streptavidin-phycoerythrin (PE) in assay buffer was added to each well and incubated as described for the previous step. After an additional three washes, 125 μl of assay buffer was added. Sample data was analyzed with Bio-Plex Manager software.

CC(C)[C@H](NC(=O)OCc1ccccc1)C(=O)N[C@@H](C)C(=O)N[C@@H](CC(=O)O)C(=O)CF [zVAD, N-benzyloxycarbonyl-Val-Ala-Asp-fluoromethyl ketone] (Cbz-Val-Ala-Asp-CH2F)
BMDC production of IL-1β: completely inhibited | BMDC production of TNF-α: augmented | production of IL-12 p40 by BMDC: partially inhibited | production of IL-12 p70 by BMDC: partially inhibited
